Source: patent publication US11427549B2, “Pyrimidinyloxy benzo-fused compounds as herbicides” (FMC Corporation, priority 2017, dated 2022)

What was measured:
[1] = system: pigweed (Amaranthus retroflexus); test: Test A preemergence, pigweed; type: in vivo; conditions: Amaranthus retroflexus, pre-emergence, 240 h, 0 to 100 scale (0 no effect, 100 complete control), read-out: Plant response rating, Pigweed; for pest or weed control at 31 g/ha: 31 g ai/ha; for pest or weed control at 125 g/ha: 125 g ai/ha
[2] = system: ragweed (common ragweed, Ambrosia elatior); test: Test A postemergence, ragweed; type: in vivo; conditions: Ambrosia artemisiifolia, post-emergence, 240 h, 0 to 100 scale (0 no effect, 100 complete control), read-out: Plant response rating, Ragweed; for pest or weed control at 31 g/ha: 31 g ai/ha; for pest or weed control at 125 g/ha: 125 g ai/ha
kochia (Kochia scoparia) [3] = test: Test A postemergence, kochia; type: in vivo; conditions: Bassia scoparia, post-emergence, 240 h, 0 to 100 scale (0 no effect, 100 complete control), read-out: Plant response rating, Kochia; for pest or weed control at 31 g/ha: 31 g ai/ha; for pest or weed control at 125 g/ha: 125 g ai/ha
corn (Zea mays) = test: Test A postemergence, corn; type: in vivo; conditions: Zea mays, post-emergence, 240 h, 0 to 100 scale (0 no effect, 100 complete control); for Corn plant response rating (crop injury, 0 = no effect, 100 = complete kill) at 31 g/ha: 31 g ai/ha; for Corn plant response rating (crop injury, 0 = no effect, 100 = complete kill) at 125 g/ha: 125 g ai/ha
[4] = system: ducksalad (Heteranthera limosa); test: Test B flooded paddy test, ducksalad; conditions: Heteranthera limosa, read-out: Plant response rating, Ducksalad (0 to 100 scale, 0 is no effect, 100 is complete control)
rice (Oryza sativa) = test: Test B flooded paddy test, rice; conditions: Oryza sativa, read-out: Plant response rating, Rice (0 to 100 scale, 0 is no effect, 100 is complete control)
[5] = system: barnyardgrass (Echinochloa crus-galli); test: Test A postemergence, barnyardgrass; type: in vivo; conditions: Echinochloa crus-galli, post-emergence, 240 h, 0 to 100 scale (0 no effect, 100 complete control), read-out: Plant response rating, Barnyardgrass; for pest or weed control at 31 g/ha: 31 g ai/ha; for pest or weed control at 125 g/ha: 125 g ai/ha
[6] = system: galium (catchweed bedstraw, Galium aparine); test: Test A postemergence, galium; type: in vivo; conditions: Galium, post-emergence, 240 h, 0 to 100 scale (0 no effect, 100 complete control), read-out: Plant response rating, Galium; for pest or weed control at 31 g/ha: 31 g ai/ha; for pest or weed control at 125 g/ha: 125 g ai/ha
[7] = system: pigweed (Amaranthus retroflexus); test: Test A postemergence, pigweed; type: in vivo; conditions: Amaranthus retroflexus, post-emergence, 240 h, 0 to 100 scale (0 no effect, 100 complete control), read-out: Plant response rating, Pigweed; for pest or weed control at 31 g/ha: 31 g ai/ha; for pest or weed control at 125 g/ha: 125 g ai/ha
[8] = system: ragweed (common ragweed, Ambrosia elatior); test: Test A preemergence, ragweed; type: in vivo; conditions: Ambrosia artemisiifolia, pre-emergence, 240 h, 0 to 100 scale (0 no effect, 100 complete control), read-out: Plant response rating, Ragweed; for pest or weed control at 125 g/ha: 125 g ai/ha; for pest or weed control at 31 g/ha: 31 g ai/ha
kochia (Kochia scoparia) [9] = test: Test A preemergence, kochia; type: in vivo; conditions: Bassia scoparia, pre-emergence, 240 h, 0 to 100 scale (0 no effect, 100 complete control), read-out: Plant response rating, Kochia; for pest or weed control at 31 g/ha: 31 g ai/ha; for pest or weed control at 125 g/ha: 125 g ai/ha
[10] = system: barnyardgrass (Echinochloa crus-galli); test: Test A preemergence, barnyardgrass; type: in vivo; conditions: Echinochloa crus-galli, pre-emergence, 240 h, 0 to 100 scale (0 no effect, 100 complete control), read-out: Plant response rating, Barnyardgrass; for pest or weed control at 31 g/ha: 31 g ai/ha; for pest or weed control at 125 g/ha: 125 g ai/ha
[11] = system: ryegrass, Italian (Italian ryegrass, Lolium multiflorum); test: Test A preemergence, ryegrass, Italian; type: in vivo; conditions: Lolium multiflorum, pre-emergence, 240 h, 0 to 100 scale (0 no effect, 100 complete control), read-out: Plant response rating, Ryegrass, Italian; for pest or weed control at 31 g/ha: 31 g ai/ha; for pest or weed control at 125 g/ha: 125 g ai/ha
[12] = system: blackgrass (Alopecurus myosuroides); test: Test A postemergence, blackgrass; type: in vivo; conditions: Alopecurus myosuroides, post-emergence, 240 h, 0 to 100 scale (0 no effect, 100 complete control), read-out: Plant response rating, Blackgrass; for pest or weed control at 31 g/ha: 31 g ai/ha; for pest or weed control at 125 g/ha: 125 g ai/ha
[13] = system: foxtail, giant (giant foxtail, Setaria faberii); test: Test A preemergence, foxtail, giant; type: in vivo; conditions: Setaria faberi, pre-emergence, 240 h, 0 to 100 scale (0 no effect, 100 complete control), read-out: Plant response rating, Foxtail, Giant; for pest or weed control at 31 g/ha: 31 g ai/ha; for pest or weed control at 125 g/ha: 125 g ai/ha
[14] = system: wheat (Triticum aestivum); test: Test A postemergence, wheat; type: in vivo; conditions: Triticum aestivum, post-emergence, 240 h, 0 to 100 scale (0 no effect, 100 complete control), read-out: Plant response rating, Wheat; for plant injury at 31 g/ha: 31 g ai/ha; for plant injury at 125 g/ha: 125 g ai/ha
[15] = system: ryegrass, Italian (Italian ryegrass, Lolium multiflorum); test: Test A postemergence, ryegrass, Italian; type: in vivo; conditions: Lolium multiflorum, post-emergence, 240 h, 0 to 100 scale (0 no effect, 100 complete control), read-out: Plant response rating, Ryegrass, Italian; for pest or weed control at 31 g/ha: 31 g ai/ha; for pest or weed control at 125 g/ha: 125 g ai/ha
[16] = system: barnyardgrass (Echinochloa crus-galli); test: Test B flooded paddy test, barnyardgrass; conditions: Echinochloa crus-galli, read-out: Plant response rating, Barnyardgrass (0 to 100 scale, 0 is no effect, 100 is complete control)

Compound | pest or weed control at 31 g/ha [1] | pest or weed control at 125 g/ha [1] | pest or weed control at 31 g/ha [2] | pest or weed control at 125 g/ha [2] | pest or weed control at 31 g/ha (kochia (Kochia scoparia) [3]) | pest or weed control at 125 g/ha (kochia (Kochia scoparia) [3]) | Corn plant response rating (crop injury, 0 = no effect, 100 = complete kill) at 31 g/ha (corn (Zea mays)) | Corn plant response rating (crop injury, 0 = no effect, 100 = complete kill) at 125 g/ha (corn (Zea mays)) | pest or weed control at 250 g/ha [4] | plant injury at 250 g/ha (rice (Oryza sativa)) | pest or weed control at 31 g/ha [5] | pest or weed control at 125 g/ha [5] | pest or weed control at 31 g/ha [6] | pest or weed control at 125 g/ha [6] | pest or weed control at 31 g/ha [7] | pest or weed control at 125 g/ha [7] | pest or weed control at 125 g/ha [8] | pest or weed control at 31 g/ha (kochia (Kochia scoparia) [9]) | pest or weed control at 125 g/ha (kochia (Kochia scoparia) [9]) | pest or weed control at 31 g/ha [10] | further results
O=C1c2cccc(Oc3ncc(Cl)cn3)c2C1CCC(F)(F)F (centres unmarked) [Compound 24, 2-[(5-Chloro-2-pyrimidinyl)oxy]-8-(3,3,3-trifluoropropyl)bicyclo[4.2.0]octa-1,3,5-trien-7-one] | 0% | 30% | 0% | 20% | 20% | 50% | 10% | 20% | 90% | 0% | 20% | 70% | 20% | 80% | 20% | 70% | 0% | 20% | 60% | 0% | pest or weed control at 125 g/ha [10]: 50%; pest or weed control at 31 g/ha [11]: 0%; pest or weed control at 125 g/ha [11]: 10%; pest or weed control at 31 g/ha [12]: 30%; pest or weed control at 125 g/ha [12]: 80%; pest or weed control at 31 g/ha [13]: 0%; pest or weed control at 125 g/ha [13]: 20%; plant injury at 31 g/ha [14]: 0%; plant injury at 125 g/ha [14]: 0%; pest or weed control at 31 g/ha [15]: 0%; pest or weed control at 125 g/ha [15]: 20%; pest or weed control at 250 g/ha [16]: 25%
O=C1OCc2cccc(Oc3ncc(Cl)cn3)c2C1CCCCC(F)(F)F (centres unmarked) [Compound 34, 5-[(5-Chloro-2-pyrimidinyl)oxy]-1,4-dihydro-4-(5,5,5-trifluoropentyl)-3H-2-benzopyran-3-one] | 0% | 0% | 0% | 0% | 20% | 10% | 10% | 20% | 0% | 0% | 0% | 10% | 20% | 50% | 10% | 40% | 0% | 0% | 0% | 0% | pest or weed control at 31 g/ha [8]: 0%; pest or weed control at 125 g/ha [10]: 0%; pest or weed control at 31 g/ha [11]: 0%; pest or weed control at 125 g/ha [11]: 0%; pest or weed control at 31 g/ha [12]: 0%; pest or weed control at 125 g/ha [12]: 10%; pest or weed control at 31 g/ha [13]: 0%; pest or weed control at 125 g/ha [13]: 10%; plant injury at 31 g/ha [14]: 0%; plant injury at 125 g/ha [14]: 10%; pest or weed control at 31 g/ha [15]: 0%; pest or weed control at 125 g/ha [15]: 0%; pest or weed control at 250 g/ha [16]: 0%
O=C1O[C@H](CCC(F)(F)F)c2c(Oc3ncc(Cl)cn3)cccc21 [Compound 19, (3R)-4-[(5-Chloro-2-pyrimidinyl)oxy]-3-(3,3,3-trifluoropropyl)-1(3H)-isobenzofuranone] | 100% | 100% | 30% | 70% | 80% | 100% | 40% | 70% | 100% | 50% | 50% | 100% | 90% | 100% | 100% | 100% | 60% | 90% | 100% | 80% | pest or weed control at 31 g/ha [8]: 0%; pest or weed control at 125 g/ha [10]: 100%; pest or weed control at 31 g/ha [11]: 10%; pest or weed control at 125 g/ha [11]: 90%; pest or weed control at 31 g/ha [12]: 100%; pest or weed control at 125 g/ha [12]: 100%; pest or weed control at 31 g/ha [13]: 100%; pest or weed control at 125 g/ha [13]: 100%; plant injury at 31 g/ha [14]: 20%; plant injury at 125 g/ha [14]: 100%; pest or weed control at 31 g/ha [15]: 80%; pest or weed control at 125 g/ha [15]: 100%; pest or weed control at 250 g/ha [16]: 60%
